# In patent publication US10624992B2, “Human airway stem cells in lung epithelial engineering” (The General Hospital Corporation, priority 2016, dated 2020):
# Key:
# [1] = system: BESCs on acellular rat lung scaffolds; experiment: Rat lung scaffold recellularization and ex vivo culture with Notch inhibitors; assay type: cell-based, human; conditions: DAPT 50 nM in vitro 5 days, then 5 days ex vivo on rat lung scaffold without inhibitors
# Description: Primary lung epithelial cells (passage 3) were harvested from 2-D culture, counted, and re-introduced to the scaffold airways in solution (20 ml) by gravity. Continuous media perfusion through the pulmonary artery was maintained at 4 ml/min by peristaltic pump and changed daily.
# RNA was isolated using the RNEasy Plus (Qiagen). cDNA was transcribed using the Superscript III kit (Invitrogen). Quantitative gene expression was analyzed using Taqman probes and the OneStep Plus system (Applied Biosystems). Expression was normalized to β-Actin expression and relative to cadaveric lung tissue control samples.
# Primary Antibodies (1:100): p63 (Santa Cruz, sc-25268), Krt5 (Abcam, ab24647), E-cadherin (BD, 610181), Surfactant Protein-B (Millipore, AB3430), pro-Surfactant Protein-C (Abcam, ab3786), Aquaporin-5 (Abcam, ab92320), Acetylated α-Tubulin (Abcam, ab24610), α2β1 integrin (Abcam, ab24697), α3β1 integrin (Abcam, ab24696), and CD31 (Daki, M082301-2). Secondary antibodies (1:400): Alexafluor 488 and 594 (Life Technologies).
# [2] = system: primary epithelial basal cells (BESCs); experiment: Notch inhibitor treatment of primary epithelial basal cells in vitro (qPCR, immunofluorescence); assay type: cell-based, human; conditions: 5 days in vitro, compared to No Treatment
# Description: (§1) Donor lung peripheral tissue (1-inch cubed) was washed in αMEM and then chopped into ˜¼ inch pieces with scissors and digested in 0.1 mg/ml DNAse (Sigma) and 1.4 mg/ml Pronase (Roche, 11459643001) for 24 hours/4° C. (52). Digested tissue was plated onto uncoated culture flasks in SAGM for 30 minutes/37° C., then non-adherent cells transferred and adhered to human Collagen-IV (Sigma-Aldrich C7521)-coated flasks. Epithelial cells were maintained in SAGM (Lonza, CC-3118) and passaged at 80% confluent (approximately 3-5 days/passage). For cells treated with γ-secretase inhibitors (1) 3-Isobutyl-1-methylxanthine (100 μg/ml IBMX, Sigma-Aldrich, 15879) and (2) N-[(3,5-Difluorophenyl)acetyl]-L-alanyl-2-phenyl]glycine-1,1-dimethylethyl ester (50 μg/ml DAPT, Selleck Chemicals, S2215), media was changed daily. Primary endothelial cells were isolated from the large vessels of donor lungs using the same digestion protocol. The endothelial population was sorted for CD31^+ purity by flow cytometry, and maintained and expanded on Gelatin coated flasks in EGM2 (Lonza, CC-3162) until utilized for human lung recellularization (See FIGS. 7A-B). RNA was isolated using the RNEasy Plus (Qiagen). cDNA was transcribed using the Superscript III kit (Invitrogen). Quantitative gene expression was analyzed using Taqman probes and the OneStep Plus system (Applied Biosystems). […]
# [3] = system: primary human lung epithelial basal cells; experiment: Effect of ROCK inhibitor on cell phenotype and senescence during cell isolation and passage; assay type: cell-based
# Description: as §1, with “FIGS. 8A-C: Effect of ROCK Inhibitor on Cell Phenotype and Senescence. […] Donor” for “Donor”, “RNA was isolated using the RNEasy Plus (Qiagen). cDNA was transcribed using the Superscript III kit (Invitrogen).” left out
# [4] = system: BESCs on decellularized rat lung scaffolds; experiment: Ex vivo rat lung recellularization on scaffolds pre-coated with TN-C and/or FBN-2; assay type: cell-based, human; conditions: Day 3 and 7
# Description: Decellularized lung scaffolds were pre-coated with (A) PBS control, (B) TN-C, 10 μg/ml, (C) FBN-2, (10 μg/ml each of N- and C-terminal fragment of FBN-2), or (D) TN-C+FBN-2 (10 μg/ml each of TN-C and of N- and C-terminal fragment of FBN-2), by delivery through the trachea. Solution was recycled to the trachea for 90 min at 37° C. A total of 20×10^6 primary lung epithelial cells (passage 3) were then delivered to the scaffold airways in 20 ml of SAGM by gravity. Constant media perfusion of SAGM through the pulmonary artery was maintained at 4 ml/min (pressure 15-20 mmHg) and changed daily. […]
# mRNA was isolated (Qiagen RNeasy Plus Kit) and transcribed to cDNA (Invitrogen SuperScript III). Gene expression was analyzed using Taqman probes and the OneStep Plus system (Applied Biosystems). Each biological sample was analyzed in experimental replicate (n=2 repeated wells of the qPCR reaction) and the Ct value of each replicate was averaged and handed as n=1 unique biologic sample. Expression for each sample was normalized to β-Actin (ACTA1) gene expression (ΔCt) and relative to cadaveric peripheral lung tissue control samples (ΔΔCt), with fold change calculated by 2-ΔΔCt (Livak and Schmittgen, Methods. 2001; 25(4):402-8). A total of n=3 unique biological samples were analyzed for each reported experiment. […]
# [5] = system: BESCs; experiment: In vitro culture of BESCs on Collagen IV plates supplemented with TN-C and/or FBN-2; assay type: cell-based, human; conditions: 7 d culture, compared to uncoated or Collagen IV coated wells
# Description: 24-well plates were pre-coated with human Collagen IV (10 μg/ml) Sigma-Aldrich C7521) for 2 h at 37° C. After removal of the collagen solution, TN-C (10 μg/ml, R&D 3358-TC-050) or the recombinant N-terminal half (FBN-2-N) or C-terminal half (FBN-2-C) of human FBN-2 (10 μg/ml) (Lin et al., The Journal of biological chemistry. 2002; 277(52):50795-804) were then added to select wells, and incubated for 2 h at 37° C. A total of 1×10^5 BESC were subsequently plated to each well and cultured for 7 d in SAGM.
# mRNA was isolated (Qiagen RNeasy Plus Kit) and transcribed to cDNA (Invitrogen SuperScript III). Gene expression was analyzed using Taqman probes and the OneStep Plus system (Applied Biosystems). Each biological sample was analyzed in experimental replicate (n=2 repeated wells of the qPCR reaction) and the Ct value of each replicate was averaged and handed as n=1 unique biologic sample. Expression for each sample was normalized to β-Actin (ACTA1) gene expression (ΔCt) and relative to cadaveric peripheral lung tissue control samples (ΔΔCt), with fold change calculated by 2-ΔΔCt (Livak and Schmittgen, Methods. 2001; 25(4):402-8). A total of n=3 unique biological samples were analyzed for each reported experiment.
# After de-paraffinization and rehydration, 5 μm tissue section were permeabilized with 0.1% Triton X-100 for intracellular antigens, when appropriate. […]
# [6] = system: BESCs; experiment: In vitro migration assay on protein coatings; assay type: cell-based, human; conditions: over 3 h, compared to Collagen IV coating alone, p<0.001; mixture of N- and C-terminal halves of FBN-2
# Description: For migration assay, after coating as above, a small inset (MIDI) was added to the wells prior to cell seeding. A total of 1×10^4 cells were seeded within the insert and incubated for 12 h, before the insert was removed. Bright-field images were taken every 30 min for 180 min to track cell migration. Images were analyzed with ImageJ software (Schneider et al., Nature methods. 2012; 9(7):671-5) to quantify the change in cell-free area.
compound,measurement,setting,value
C[C@H](NC(=O)Cc1cc(F)cc(F)c1)C(=O)NC(C(=O)OC(C)(C)C)c1ccccc1 (stereo partly drawn) [DAPT],distal type2-like fate after in vitro pre-treatment and inhibitor withdrawal,[1],maintained a distal type2-like fate
same,SP-B and SP-C gene expression (type II pneumocyte markers),[2],ineffective alone
"CC(C)Cn1c(=O)n(C)c(=O)c2[nH]cnc21 [IBMX, 3-Isobutyl-1-methylxanthine]",SP-B and SP-C gene expression (type II pneumocyte markers),[2],ineffective alone
C[C@@H](N)[C@H]1CC[C@H](C(=O)Nc2ccncc2)CC1 [Y-27632],"basal cell population, proliferation (Ki67, PCNA) and senescence (CDKN2A)",[3]; during cell isolation and passage,"did not enhance the basal cell population, or alter proliferation (Ki67, PCNA) or senescence"
same,"gene expression, treated vs untreated","[3]; passage 1 and passage 4, n=3 cell lines, t-test",No significant differences
"TN-C: Tenascin-C glycoprotein (R&D 3358-TC-050), used as coating at 10 μg/ml",Ki67 expression of Krt5+ BESCs (immunofluorescence),[4],significant increase in proliferation
same,proliferation (gene expression),[5],significantly greater proliferation
same,senescence (gene expression),[5],less senescence
same,BESC migration rate (change in cell-free area),[6],Significantly higher rates of BESC migration
